Molecules are shown by their SMILES. Structures can show the parent of a compound that is named as a salt.

Test [1] addresses T1, acetylcholinesterase (AChE) (Rattus norvegicus, UniProt P37136).
T1 construct: corpora striata dissected free, weighed and homogenized in 19 volumes; from tissue; host or cells: male Wistar rat corpora striata, whole homogenate
T1 sequence (P37136 32-614): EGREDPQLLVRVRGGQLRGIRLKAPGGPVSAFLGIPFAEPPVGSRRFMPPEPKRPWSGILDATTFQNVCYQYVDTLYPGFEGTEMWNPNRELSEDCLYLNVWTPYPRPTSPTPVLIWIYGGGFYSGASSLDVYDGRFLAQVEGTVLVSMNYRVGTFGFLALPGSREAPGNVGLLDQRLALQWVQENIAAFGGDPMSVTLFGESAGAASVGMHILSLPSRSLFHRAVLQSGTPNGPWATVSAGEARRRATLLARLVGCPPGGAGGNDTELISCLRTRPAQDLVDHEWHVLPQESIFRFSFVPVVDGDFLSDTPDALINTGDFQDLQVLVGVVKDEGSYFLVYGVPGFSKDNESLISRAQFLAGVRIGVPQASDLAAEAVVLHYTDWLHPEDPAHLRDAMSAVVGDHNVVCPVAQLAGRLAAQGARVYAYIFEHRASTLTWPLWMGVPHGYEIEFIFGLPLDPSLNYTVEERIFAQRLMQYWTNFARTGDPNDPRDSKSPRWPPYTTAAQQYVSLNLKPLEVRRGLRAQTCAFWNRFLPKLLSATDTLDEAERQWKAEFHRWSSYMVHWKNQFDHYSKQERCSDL
Put plainly: In vitro inhibition of acetylcholinesterase activity in rat striatum. Type of test: biochemical, Rat (male Wistar). The text has this:
Cholinesterase Inhibition Assay
Cholinesterases are found throughout the body, both in the brain and in serum. However, only brain acetylcholinesterase (AChE) distribution is correlated with central cholinergic innervation.
In Vitro Inhibition of Acetylcholinesterase Activity in Rat Striatum
The method described below was used in this invention for assaying cholinesterase activity.
1. 0.05M Phosphate buffer, pH 7.2
(c) add (a) to (b) until pH reaches 7.2
4. […] If active, IC50 values are determined from the inhibitory activity of subsequent concentrations.
Enzyme activity is measured with the Beckman DU-50 spectrophotometer. This method can be used for IC50 determinations and for measuring kinetic constants.
Reagents are added to the blank and sample cuvettes as follows:
Blank values are determined for each run to control for non-enzymatic hydrolysis of substrate and these values are automatically subtracted by the kindata program available on kinetics soft-pac module. This program also calculates the rate of absorbance change for each cuvette.
Substrate concentration is 10 mM diluted 1:2 in assay yielding final concentration of 5 mM. DTNB concentration is 0.5 mM yielding 0.25 mM final concentration. [formula] IC50 values are calculated from log-probit analysis

The target of test [2] is T2, Type B monoamine oxidase (MAO-B) (Rattus norvegicus, UniProt P19643).
T2 construct: served as the tissue source for mitochondrial MAO; from tissue; host or cells: male Wistar rat whole brain minus cerebellum, P2 pellet (18,000 g)
T2 sequence (P19643 1-520): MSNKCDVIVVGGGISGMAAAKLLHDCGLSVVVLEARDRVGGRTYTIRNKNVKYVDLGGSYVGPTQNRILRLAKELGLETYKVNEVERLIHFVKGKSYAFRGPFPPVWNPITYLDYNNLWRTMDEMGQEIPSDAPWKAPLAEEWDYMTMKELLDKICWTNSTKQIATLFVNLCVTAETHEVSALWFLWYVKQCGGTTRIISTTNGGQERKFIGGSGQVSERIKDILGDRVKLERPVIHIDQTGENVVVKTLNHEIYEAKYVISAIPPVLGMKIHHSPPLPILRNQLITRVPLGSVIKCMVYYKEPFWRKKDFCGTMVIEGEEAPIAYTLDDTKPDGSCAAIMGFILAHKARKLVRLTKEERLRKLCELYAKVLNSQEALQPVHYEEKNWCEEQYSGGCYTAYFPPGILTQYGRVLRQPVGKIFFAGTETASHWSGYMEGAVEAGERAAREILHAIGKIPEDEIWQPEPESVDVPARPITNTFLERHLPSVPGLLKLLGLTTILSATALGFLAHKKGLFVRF
The test is described as follows: Inhibition of Type B monoamine oxidase activity in rat brain synaptosomes. Type of test: biochemical, Rat (male Wistar). Conditions: [14C]-PEA substrate 200 μM, 15 min preincubation, 30 min at 37° C., pH 7.4, read-out: Inhibitory Concentration - IC50, Type-B. The text has this:
(§1) Male Wistar rats weighing 150-250 grams were sacrificed and the brains rapidly removed.

Test [3] addresses T3, Type A monoamine oxidase (MAO-A) (Rattus norvegicus, UniProt P21396).
T3 construct: served as the tissue source for mitochondrial MAO; from tissue; host or cells: male Wistar rat whole brain minus cerebellum, P2 pellet (18,000 g)
T3 sequence (P21396 1-526): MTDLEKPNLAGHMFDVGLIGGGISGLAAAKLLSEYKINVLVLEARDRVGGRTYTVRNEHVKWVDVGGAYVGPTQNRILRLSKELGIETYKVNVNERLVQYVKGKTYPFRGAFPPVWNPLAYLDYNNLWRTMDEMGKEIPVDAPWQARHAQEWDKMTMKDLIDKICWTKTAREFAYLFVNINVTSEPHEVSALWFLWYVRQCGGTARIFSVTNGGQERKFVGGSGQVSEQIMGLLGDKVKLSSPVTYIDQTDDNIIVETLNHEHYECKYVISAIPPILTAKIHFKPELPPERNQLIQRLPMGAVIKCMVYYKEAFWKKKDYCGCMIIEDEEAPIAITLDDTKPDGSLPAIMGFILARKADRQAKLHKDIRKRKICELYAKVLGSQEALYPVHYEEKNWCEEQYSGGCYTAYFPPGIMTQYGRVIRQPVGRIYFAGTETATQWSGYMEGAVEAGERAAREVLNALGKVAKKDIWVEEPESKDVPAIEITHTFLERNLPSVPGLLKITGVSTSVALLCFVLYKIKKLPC
Put plainly: Inhibition of Type A monoamine oxidase activity in rat brain synaptosomes. Type of test: biochemical, Rat (male Wistar). The settings on record: [3H]-5HT substrate 200 μM, 15 min preincubation, 30 min at 37° C., pH 7.4, read-out: Inhibitory Concentration - IC50, Type-A.
From the text: as §1

Test [4] deals with monoamine oxidase type A and type B. Conditions: in words; reference (2), Fowler and Ross 1984; cited from earlier work.

In turn, `CNC(=O)Oc1ccc2c(c1)c1c(n2C)CC(CN(C)C)C1` (centres unmarked) [1,2,3,4-Tetrahydro-2-[(dimethylamino)methyl]-4-methylcyclopent[b]indol-7-yl-methylcarbamate hydrochloride] yielded an IC50 in test [1] of 9.6 µM.

Regarding `CCNCC1Cc2c(n(C)c3ccc(OC)cc23)C1` (centres unmarked) [1,2,3,4-Tetrahydro-4-methyl-7-methoxy-N-ethylcyclopent[b]indole-2-methanamine maleate], the IC50 in test [2] was found to be 713 µM; in test [3] it was 182 µM.

Take `COc1ccc2c(c1)c1c(n2C)CC(CN)C1` (centres unmarked) [1,2,3,4-Tetrahydro-7-methoxy-4-methylcyclopent[b]indole-2-methanamine hydrochloride]: the IC50 in test [2] is 287 µM; in test [3], 59 µM.

With `C#CCN(C)CCCOc1ccc(Cl)cc1Cl` [Clorgyline], the “selectivity of inhibition of type A / type B monoamine oxidase” value in test [4] is on record as “selective inhibitor of the type A enzyme”.

Consider `CC(C)NNC(=O)c1ccncc1` [iproniazid], for which, in test [4], the “selectivity of inhibition of type A / type B monoamine oxidase” value is listed as “nonselective inhibitors”.

Take `C#CCN(C)Cc1ccccc1` [pargyline]: the “selectivity of inhibition of type A / type B monoamine oxidase” value in test [4] is reported as “selective inhibitors of the type B enzyme”.

These data come from patent US5350762A, “Tetrahydrocyclopent[B]indole methanamines and related compounds” (priority 1993, dated 1994).
